Entries after “also recorded” stand apart in the source; their conditions may differ. Like-named read-outs stand apart in the source and are kept apart here.
Key:
[1] = Acute toxicity (LD50) by oral or intraperitoneal administration to ddY mice (Test Example 6); assay type: in vivo; settings: mouse, in vivo, 7 days
Description: The acute toxicity of the compound according to this invention was determined by forced oral or intraperitoneal administration thereof to ddY mice.
To prepare each specimen to be administered, a predetermined amount of each compound shown in Table 5 was dissolved in a physiological saline or suspended in a 0.2% solution of carboxymethylcellulose in a physiological saline. Each specimen was administered orally to a ddY mouse via its stomach tube or injected intraperitoneally.

[2] = test system: Sarcoma-180; test: Activity against a transplantable cancer, Sarcoma-180 (Test Example 7); assay type: in vivo, ICR-JCL mice; settings: Mus musculus, Sarcoma-180, ip, 240 h, 100 mg/kg ip once a day for 10 days; read-out: I.R. (inhibition ratio, Sarcoma-180 tumor weight)
Description: Sarcoma-180 cells (1×10^6 cells) were inoculated subcutaneously into the back skin of each of ICR-JCL mice.
Chemotherapy was given intraperitoneally 24 hrs. after inoculation and performed once a day for 10 days. Each specimen to be administered was prepared by dissolving or suspending 30 mg of each compound according to this invention in 1 ml of a physiological saline or in 1 ml of a 0.2% solution of carboxymethylcellulose in a physiological saline, respectively.
All the solutions and the suspensions thus prepared were injected at a volume of 0.1 ml as a single dose (100 mg/Kg).
The inhibition ratio (%) was calculated according to the following equation: […]
wherein T represents the mean weight of the tumor Sarcoma-180 in a tested group of mice; and C represents the mean weight of the tumor in a control group of mice.

[3] = test system: synthesis of [35S]glycosaminoglycan in epiphysial cartilages; test: Recovery in the rate of 35S uptake in cartilage in which glycosaminoglycan synthesis was inhibited by cycloheximide (Test Examples 4, 5); assay type: cell-based, chick embryos; settings: for effectiveness as initiator for the synthesis of chondroitin sulfate: 1.0 mM solution in DMSO, in words; for Rate of 35S uptake: cycloheximide 0.3 mM; for 35S uptake as compared with the case where no xylopyranoside was added: 0.02 mM solution in DMSO
Description: (§1) Epiphysial cartilages were taken from chick embryos aged 12 days in the Tyrode's medium under ice-cooling, and excess tissues were removed therefrom. To 150 mg. of cartilages corresponding to five embryos, 5 ml. of BGJb [a completely synthetic culture medium prepared according to a recipe of GIBCO (Grand Island Biological Company)] was added, followed by pre-incubation at a temperature of 37° C. After replacing the culture medium, further 1 ml. of BGJb and 5 μCi Na2^35 SO4 were added, and the culture system was kept at 37° C. for 3 hours. The culture medium was then replaced by 1 ml. of a fresh chase medium containing no radio active isotope. After keeping the culture system at 37° C. for 1 hour, the culture medium was separated from the tissues. To study the effects of the xyloside compound on the synthesis of glycosaminoglycan, the xyloside compound was added in the predetermined concentration to the pre-incubation and incubation media.
(§2) After the incubation, the labeled medium containing Na2^35 SO4 was combined with the chase medium. Pronase-P (trade name) (available from Kaken Kagaku Co., Ltd.) was added thereto in a 0.5 M tris-HCl buffer solution (pH 8.0), and the resulting mixture was digested at 50° C. for 16 hours. The digested reaction mixture was then subjected to gel filtration through a column (1.5×14 cm.) packed with Bio-Gel P-2 (available from Bio-Rad Company) using a 0.2 M ammonium formate solution as an eluate. In this way, the Vo fraction was collected and was then freeze-dried to give a crude glycosaminoglycan.
(§3) On the other hand, ice-cold 4 M guanidine hydrochloride was added to the tissues which were previously separated from the culture medium. The resulting mixture was left to stand overnight at a temperature of -20° C., and then homogenized. The obtained homogenate was left to stand overnight at room temperature and centrifuged at a speed of 8,500 rpm to obtain a supernatant. To the obtained liquid, water was added in an amount threefold that of the supernatant. Then, a 95% ethyl alcohol (containing 1.3% of potassium acetate) was added to the resulting mixture in an amount threefold that of the mixture to obtain a precipitate. This procedure was repeated twice, and the combined precipitates were dried in a desiccator. The obtained precipitates were dissolved in a 0.02 M tris-HCl buffer solution (pH 8.0) and digested with Pronase-P in the manner similar to the culture medium described above, thereby obtaining a crude glycosaminoglycan.
(§4) According to the same procedure as in Test example 1, a crude glycosaminoglycan was obtained.
As the xyloside compound, publicly-known methyl 1-thio-β-D-xylopyranoside and n-butyl 1-thio-β-D-xylopyranoside,and six compounds according to the present invention viz. n-heptyl 1-thio-β-D-xylopyranoside, n-nonyl 1-thio-β-D-xylopyranoside, n-decyl 1-thio-β-D-xylopyranoside, n-undecyl […], n-lauryl 1-thio-β-D-xylopyranoside and n-cetyl 1-thio-β-D-xylopyranoside were used. The effects of these compounds on the total amount of [^35 S]glycosaminoglycan synthesized (^35 S uptake amount) were investigated.
That is, after the effect of the addition of DMSO (dimethyl sulfoxide) which is a solvent was investigated, […], thereby inhibiting the synthesis of [^35 S]glycosaminoglycan by around up to 95%. Subsequently, to the medium in which the synthesis of glycosaminoglycan had been inhibited, there was added each solution of the xyloside compound in DMSO having various concentrations to investigate the recovery in the rate of the ^35 S uptake (the relative value expressed by percentage ^35 S uptake relative to the amount of uptake in a control medium to which no xylpyranoside compound was added).
According to the same procedure as in Example 1, a crude glycosaminoglycan was obtained. […]

[4] = test system: synthesis of chondroitin sulfate in epiphysial cartilages; test: Effect of xyloside compounds on synthesis of [35S]glycosaminoglycan (chondroitin sulfate) in epiphysial cartilage culture (Test Examples 1-3); assay type: cell-based, chick embryos; settings: for concentration required compared with O-β-D-xylopyranoside compounds / effectiveness as initiator for the synthesis of chondroitin sulfate / total 35S uptake amount of glycosaminoglycan as the concentration of the xyloside compound rose: in words; for total 35S uptake amount of glycosaminoglycan as the concentration of the xyloside compound rose: concentration in culture medium varied; for activity at 1000 µM: Gallus gallus
Description: as §1, §2, §3
As the xyloside compound, conventional O-paranitrophenyl-β-D-xylopyranoside, and two compounds according to the present invention viz. C-n-butyl-β-D-xylopyranoside and C-ethyl-β-D-xylopyranoside were used. The effects of these xyloside compounds on the total amount of [^35 S] glycosaminoglycan synthesized (^35 S uptake amount), the amount thereof liberated to the culture medium and the amount thereof remaining in the tissues were as shown in FIGS. 1 to 3.
In each Figure, the vertical axis denotes the amount of [^35 S]chondroitin sulfate (^35 S cpm×10^-4 /μmol.uronic acid) and the horizontal axis denotes the concentration (mM) of each xylopyranoside compound in the culture medium.
as §4
As the xyloside compound, conventional O-paranitrophenyl β-D-xylopyranoside and N-para(sodiumoxycarbonyl)phenyl-D-xylopyranosylamine, and three compounds according to the present invention viz. para(sodiumoxycarbonyl)phenyl β-D-xylopyranoside, C-para(sodiumoxycarbonyl)benzyl-β-D-xylopyranoside and para(sodiumoxycarbonyl)phenyl 1-thio-β-D-xylopyranoside were used. The effects of these xyloside compounds on the total amount of [^35 S]glycosaminoglycan synthesized (^35 S uptake amount) were shown in FIGS. 3 to 7. […]

[5] = ip, intraperitoneal, read-out: LD50 (ip)

## O[C@@H]1[C@@H](O)[C@H](Cc2ccccc2)OC[C@H]1O [C-Benzyl-1-β-D-xylopyranoside, C-Benzyl-β-D-xylopyranoside]
[1]; [5]
  LD50 at 168 h: 2400 mg/kg
[1]; po, read-out: LD50 (po)
  LD50 at 168 h: 7200 mg/kg
[2]
  inhibition in vivo at 100 mg/kg: 30.9%

## O=C(O)c1ccc(C[C@@H]2OC[C@@H](O)[C@H](O)[C@H]2O)cc1 [C-Para(lithiumoxycarbonyl)benzyl-β-D-xylopyranoside]
[1]; [5]
  LD50 at 168 h: 2500 mg/kg
[1]; po, read-out: LD50 (po)
  LD50 at 168 h: 8600 mg/kg
[2]
  inhibition in vivo at 100 mg/kg: 44.7%

## CCCCCCC[C@@H]1OC[C@@H](O)[C@H](O)[C@H]1O [C-n-Heptyl-β-D-xylopyranoside]
[3]
  effectiveness as initiator for the synthesis of chondroitin sulfate: extremely effective initiators for the synthesis of chondroitin sulfate
[3]; xyloside 0.2 mM, DMSO 0.1%
  Rate of 35S uptake: 114.0%
[3]; xyloside 0.5 mM, DMSO 0.1%
  Rate of 35S uptake: 183.0%
[3]; xyloside 1.0 mM, DMSO 0.1%
  Rate of 35S uptake: 193.0%
[1]; [5]
  LD50 at 168 h: 1040 mg/kg
[1]; po, read-out: LD50 (po)
  LD50 at 168 h: 4200 mg/kg
[2]
  inhibition in vivo at 100 mg/kg: 54.8%

## CCCCCC[C@@H]1OC[C@@H](O)[C@H](O)[C@H]1O [C-n-hexyl-β-D-xylopyranoside, C-n-Hexyl-β-D-xylopyranoside]
[3]
  effectiveness as initiator for the synthesis of chondroitin sulfate: extremely effective initiators for the synthesis of chondroitin sulfate
[3]; xyloside 0.2 mM, DMSO 0.1%
  Rate of 35S uptake: 82.0%
[3]; xyloside 0.5 mM, DMSO 0.1%
  Rate of 35S uptake: 148.0%
[3]; xyloside 1.0 mM, DMSO 0.1%
  Rate of 35S uptake: 196.0%

## CC(C)CCS[C@@H]1OC[C@@H](O)[C@H](O)[C@H]1O [Isoamyl 1-thio-β-D-xylopyranoside]
[1]; [5]
  LD50 at 168 h: 1850 mg/kg
[1]; po, read-out: LD50 (po)
  LD50 at 168 h: 5800 mg/kg
[2]
  inhibition in vivo at 100 mg/kg: 35.6%

## CC(C)S[C@@H]1OC[C@@H](O)[C@H](O)[C@H]1O [Isopropyl 1-thio-β-D-xylopyranoside]
[1]; [5]
  LD50 at 168 h: 2200 mg/kg
[1]; po, read-out: LD50 (po)
  LD50 at 168 h: 6700 mg/kg
[2]
  inhibition in vivo at 100 mg/kg: 30.4%

## NC(=O)c1ccc(NC2OC[C@@H](O)[C@H](O)[C@H]2O)cc1 (stereo partly drawn) [N-carbamoylphenyl-D-xylopyranosylamine, N-Paracarbamoylphenyl-D-xylopyranosylamine]
[4]
  concentration required compared with O-β-D-xylopyranoside compounds: requires higher concentration as compared with the O-β-D-xylopyranoside compounds
  effectiveness as initiator for the synthesis of chondroitin sulfate: good initiator for the synthesis of chondroitin sulfate
  total 35S uptake amount of glycosaminoglycan as the concentration of the xyloside compound rose: increased as the concentration of the xyloside compound rose

## O=C(O)c1ccc(NC2OC[C@@H](O)[C@H](O)[C@H]2O)cc1 (stereo partly drawn) [N-para(sodiumoxycarbonyl)phenyl-D-xylopyranosylamine]
[4]
  concentration required compared with O-β-D-xylopyranoside compounds: requires higher concentrations as compared with O-paranitrophenyl-β-D-xylopyranoside
  total 35S uptake amount of glycosaminoglycan as the concentration of the xyloside compound rose: shows a similar tendency; also recorded: does not change remarkably within the range of the concentration of 0 to 20 mM of the compound and that the increase in the total uptake amount thereafter is mild

## O=[N+]([O-])c1ccc(O[C@@H]2OC[C@@H](O)[C@H](O)[C@H]2O)cc1 [O-paranitrophenyl-β-D-xylopyranoside]
[4]; at 1 mM, read-out: [35S]glycosaminoglycan liberated to the culture medium
  activity at 1000 µM: 95%
[4]; at 1 mM, read-out: [35S]glycosaminoglycan remaining in the tissues
  activity at 1000 µM: 11%
[4]; at 1 mM
  35S uptake of glycosaminoglycan: 40800 cpm
  35S uptake of glycosaminoglycan relative to control: 2.35 times that of the control
  [35S]glycosaminoglycan remaining in the tissues: 11 % of the control
[4]
  effectiveness as initiator for the synthesis of chondroitin sulfate: extremely effective as an initiator for the synthesis of chondroitin sulfate; also recorded: extremely effective as the initiator for the synthesis of condroitin sulfate
  total 35S uptake amount of glycosaminoglycan as the concentration of the xyloside compound rose: increased

## O=C(O)c1ccc(S[C@@H]2OC[C@@H](O)[C@H](O)[C@H]2O)cc1 [Para(lithiumoxycarbonyl)phenyl 1-thio-β-D-xylopyranoside]
[1]; [5]
  LD50 at 168 h: 2700 mg/kg
[1]; po, read-out: LD50 (po)
  LD50 at 168 h: 7800 mg/kg
[2]
  inhibition in vivo at 100 mg/kg: 47.2%

## O=C(O)c1ccc(O[C@@H]2OC[C@@H](O)[C@H](O)[C@H]2O)cc1 [Para(potassiumoxycarbonyl)phenyl-β-D-xylopyranoside]
[1]; [5]
  LD50 at 168 h: 3020 mg/kg
[1]; po, read-out: LD50 (po)
  LD50 at 168 h: 9800 mg/kg
[2]
  inhibition in vivo at 100 mg/kg: 44.8%

## C[C@@H]1C[C@@H]([C@H](O)CC2CC(=O)NC(=O)C2)C(=O)[C@@H](C)C1 [cycloheximide, reference compound]
[3]; Gallus gallus, read-out: inhibition of the synthesis of [35S]glycosaminoglycan
  inhibition at 30 µM: ~95%
[3]; no xyloside, DMSO 0%, relative to control medium
  Rate of 35S uptake: 5.5%
[3]; no xyloside, DMSO 0.1%, relative to control medium
  Rate of 35S uptake: 4.9%
[3]; no xyloside, DMSO 0.2%, relative to control medium
  Rate of 35S uptake: 6.1%
[3]; no xyloside, DMSO 0.5%, relative to control medium
  Rate of 35S uptake: 6.1%
[3]; no xyloside, DMSO 1.0%, relative to control medium
  Rate of 35S uptake: 5.8%

## CCCCCCCS[C@@H]1OC[C@@H](O)[C@H](O)[C@H]1O [n-heptyl 1-thio-β-D-xylopyranoside, n-Heptyl 1-thio-β-D-xylopyranoside]
[3]
  35S uptake as compared with the case where no xylopyranoside was added: around twice

## CCCCCCCCS[C@@H]1OC[C@@H](O)[C@H](O)[C@H]1O [n-octyl 1-β-D-xylopyranoside, n-Octyl 1-thio-β-D-xylopyranoside]
[3]
  35S uptake as compared with the case where no xylopyranoside was added: around twice

Source: patent publication US4454123A, “O-xylopyranoside series compounds and methods of use” (Seikagaku Kogyo Co. Ltd., priority 1980, dated 1984)
